Measured values as given in publication PMC5727211, “Development of Erasin: a chromone-based STAT3 inhibitor which induces apoptosis in Erlotinib-resistant lung cancer cells” (Scientific Reports, 2017).
Values belong to the compound of their own block, whether it stands above or below them.

What was measured:
parental HCC-827 cells = test: Apoptosis assay (Annexin V/7-AAD flow cytometry), parental HCC-827 cells; assay type: cell-based, human; conditions: 24 h
Description: (§1) Afterwards, the cell culture supernatant from each well was collected. […] The supernatants were then returned to each well to neutralize the Accutase solution and the cells were centrifuged at 3000 rpm, at 4 °C for 5 min. The cell pellets were washed twice with cold PBS and centrifuged again. […] Cells were resuspended in 1 x binding buffer and incubated with PE Annexin V and 7-AAD at 4 °C for 30 min. Apoptosis was measured using an LSR II flow cytometer (BD Bioscience). Experiments were carried out in at least triplicate.

[1] = system: Erlotinib-resistant HCC-827 cells; test: Apoptosis assay (Annexin V/7-AAD flow cytometry), Erlotinib-resistant HCC-827 cells; assay type: cell-based, human; conditions: 24 h
Description: as §1, with “triplicate. […]” for “triplicate.”

STAT1 SH2 domain = target: T1, STAT1 SH2 domain (Homo sapiens, UniProt P42224); test: FP-based competitive binding assay, STAT1 SH2 domain; conditions: mean ± s.d., three experiments; for IC50: 1 h with protein, then 1 h with peptide, read-out: STAT1 app. IC50; for inhibition at 80 µM / STAT1 inhibition: at 80 µM
T1 sequence (P42224 1-750): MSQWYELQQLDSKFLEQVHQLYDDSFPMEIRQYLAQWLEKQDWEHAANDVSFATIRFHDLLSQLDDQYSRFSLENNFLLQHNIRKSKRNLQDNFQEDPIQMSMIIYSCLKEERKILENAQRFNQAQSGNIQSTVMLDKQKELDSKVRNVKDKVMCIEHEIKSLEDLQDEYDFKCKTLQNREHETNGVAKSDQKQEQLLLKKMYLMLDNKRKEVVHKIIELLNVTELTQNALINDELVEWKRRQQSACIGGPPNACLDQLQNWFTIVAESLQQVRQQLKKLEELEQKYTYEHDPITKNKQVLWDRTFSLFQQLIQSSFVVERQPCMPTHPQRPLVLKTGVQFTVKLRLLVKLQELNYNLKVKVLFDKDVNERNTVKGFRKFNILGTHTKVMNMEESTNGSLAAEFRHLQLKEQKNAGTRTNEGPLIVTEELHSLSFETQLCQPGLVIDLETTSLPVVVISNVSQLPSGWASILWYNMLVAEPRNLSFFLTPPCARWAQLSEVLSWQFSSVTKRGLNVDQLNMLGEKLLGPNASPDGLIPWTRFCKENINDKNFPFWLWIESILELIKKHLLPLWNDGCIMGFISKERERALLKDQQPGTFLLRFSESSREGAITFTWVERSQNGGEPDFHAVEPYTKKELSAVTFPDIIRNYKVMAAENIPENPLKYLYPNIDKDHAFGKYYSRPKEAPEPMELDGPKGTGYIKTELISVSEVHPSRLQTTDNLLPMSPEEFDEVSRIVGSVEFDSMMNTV
Description: (§2) The STAT family display a high degree of homology. […] Vilsmeyer-Haack formylation of 2-hydroxy acetophenones led to 3-formyl chromones, which were subsequently converted to the acyl hydrazones by reaction with hydrazides (Fig. 1). The target molecules were tested for their abilities to inhibit binding of fluorophore-labeled peptides to the SH2 domains of STAT1[24], STAT3[25], and STAT5b[26] in assays based on fluorescence polarization (FP). The more distantly related SH2 domain of the tyrosine kinase Lck served as additional specificity control[27],[28].
(§3) Assays were performed essentially as described. In brief, protein was incubated with the test compounds for 1 h at room temperature at the following protein concentrations: STAT1: 400 nM, STAT3: 210 nM, STAT5b: 300 nM, Lck SH2: 35 nM. Subsequently, the corresponding fluorophore-labeled peptide was added: STAT1: (5-carboxyfluorescein)-GpYDKPHVL-OH, derived from the interferon-γ receptor[24]; STAT3: (5-carboxyfluorescein)-GpYLPQTV-NH2, derived from the gp130 subunit of the IL-6 receptor[25]; STAT5b: (5-carboxyfluorescein)-GpYLVLDKW-OH, derived from the erythropoietin receptor[26]; Lck SH2: (5-carboxyfluorescein)-GpYEEIP-OH, derived from the middle-T antigen. After a further hour of incubation, fluorescence polarization was measured in a plate reader (Tecan Infinite F500). Apparent IC50 data shown in Tables 1, 2, and S1 and the inhibition curves shown in Fig. 2a correspond to this time point. The majority of the pipetting work was carried out using a Biomek FXp workstation (Beckman-Coulter). Buffer composition: 10 mM Tris pH 8.0, 50 mM NaCl, 1 mM EDTA, 1 mM dithiothreitol (DTT), 0.1% Nonidet P-40, and 2% DMSO.

STAT3 SH2 domain = STAT3 SH2 domain (Homo sapiens, UniProt P40763); test: FP-based competitive binding assay, STAT3 SH2 domain; conditions: mean ± s.d., three experiments; for IC50: 1 h with protein, then 1 h with peptide, read-out: STAT3 app. IC50; for inhibition at 80 µM / STAT3 inhibition: at 80 µM
Sequence of STAT3 SH2 domain (P40763 whole entry, the tested form may be a part): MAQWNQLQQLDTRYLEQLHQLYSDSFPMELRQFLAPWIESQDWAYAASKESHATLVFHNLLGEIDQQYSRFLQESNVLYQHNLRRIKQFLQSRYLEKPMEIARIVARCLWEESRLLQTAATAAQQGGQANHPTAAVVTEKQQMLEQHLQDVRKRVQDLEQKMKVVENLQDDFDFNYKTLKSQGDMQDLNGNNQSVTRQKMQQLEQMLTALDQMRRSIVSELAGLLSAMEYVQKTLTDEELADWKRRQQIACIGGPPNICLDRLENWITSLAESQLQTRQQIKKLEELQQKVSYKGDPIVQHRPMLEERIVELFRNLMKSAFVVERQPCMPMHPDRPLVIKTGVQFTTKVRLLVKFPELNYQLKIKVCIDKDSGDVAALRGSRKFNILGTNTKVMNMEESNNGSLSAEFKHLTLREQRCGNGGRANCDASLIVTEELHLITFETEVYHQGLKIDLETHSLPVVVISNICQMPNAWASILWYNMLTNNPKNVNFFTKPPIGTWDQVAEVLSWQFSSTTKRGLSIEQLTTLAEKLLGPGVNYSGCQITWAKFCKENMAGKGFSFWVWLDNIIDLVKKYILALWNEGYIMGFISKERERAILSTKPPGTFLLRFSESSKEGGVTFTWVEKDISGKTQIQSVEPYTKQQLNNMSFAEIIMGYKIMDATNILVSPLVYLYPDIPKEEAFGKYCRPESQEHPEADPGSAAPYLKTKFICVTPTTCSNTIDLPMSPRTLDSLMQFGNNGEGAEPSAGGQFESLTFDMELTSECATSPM
Description: as §2
as §3, with “Buffer composition: 10 mM Tris pH 8.0, 50 mM NaCl, 1 mM EDTA, 1 mM dithiothreitol (DTT), 0.1% Nonidet P-40, and 2% DMSO.” left out

STAT5b SH2 domain = target: T2, STAT5b SH2 domain (Homo sapiens, UniProt P51692); test: FP-based competitive binding assay, STAT5b SH2 domain; conditions: mean ± s.d., three experiments; for STAT5b inhibition / inhibition at 80 µM: at 80 µM; for IC50: 1 h with protein, then 1 h with peptide, read-out: STAT5b app. IC50
T2 sequence (P51692 1-787): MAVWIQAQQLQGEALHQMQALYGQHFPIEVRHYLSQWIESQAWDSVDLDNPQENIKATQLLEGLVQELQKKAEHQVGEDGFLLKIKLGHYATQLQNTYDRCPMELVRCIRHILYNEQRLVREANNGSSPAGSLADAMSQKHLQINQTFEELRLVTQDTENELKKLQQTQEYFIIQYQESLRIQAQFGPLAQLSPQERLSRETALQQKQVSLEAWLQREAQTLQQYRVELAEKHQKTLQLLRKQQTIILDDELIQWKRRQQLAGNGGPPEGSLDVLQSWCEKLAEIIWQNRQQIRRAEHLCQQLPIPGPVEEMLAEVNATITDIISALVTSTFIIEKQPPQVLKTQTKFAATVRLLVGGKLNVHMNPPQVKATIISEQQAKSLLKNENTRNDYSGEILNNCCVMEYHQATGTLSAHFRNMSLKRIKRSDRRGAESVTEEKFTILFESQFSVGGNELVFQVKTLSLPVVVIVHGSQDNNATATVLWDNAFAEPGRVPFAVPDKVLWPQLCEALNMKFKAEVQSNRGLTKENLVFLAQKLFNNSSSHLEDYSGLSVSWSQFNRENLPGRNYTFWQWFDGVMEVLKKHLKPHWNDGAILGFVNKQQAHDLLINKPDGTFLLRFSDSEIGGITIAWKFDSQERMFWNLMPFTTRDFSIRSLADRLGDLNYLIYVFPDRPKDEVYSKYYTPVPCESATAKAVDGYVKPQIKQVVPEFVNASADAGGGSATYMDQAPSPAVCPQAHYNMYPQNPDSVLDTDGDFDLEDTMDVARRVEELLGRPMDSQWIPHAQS
Description: as §2, §3

Lck SH2 = target: T3, Lck SH2 (Homo sapiens, UniProt P06239); test: FP-based competitive binding assay, Lck SH2 domain; conditions: for Lck inhibition: at 80 µM
T3 construct: STAT1: 400 nM, STAT3: 210 nM, STAT5b: 300 nM, Lck SH2: 35 nM
T3 sequence (P06239 127-224 limits assumed): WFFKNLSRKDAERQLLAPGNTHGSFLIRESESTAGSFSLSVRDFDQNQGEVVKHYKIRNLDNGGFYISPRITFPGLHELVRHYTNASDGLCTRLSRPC
Description: as §2, §3
Supplementary Figures and Table
No Structure app. IC50 [µM] or
Supplementary Table S1: Activities of test compounds in fluorescence polarization assays against the
SH2 domains of Lck. See the Supporting Methods for details. […]

SMILES: C#Cc1cccc(Nc2ncnc3cc(OCCOC)c(OCCOC)cc23)c1 [Erlotinib]
apoptosis (parental HCC-827 cells; 1 nM): significant increase in apoptosis
induction of apoptosis (parental HCC-827 cells; 1 µM): more than tenfold induction of apoptosis
apoptosis ([1]; 10 nM): did not show increased apoptosis
increase of the apoptotic rate ([1]; 1 µM): only a twofold increase

SMILES: O=C(N/N=C/c1coc2ccc([N+](=O)[O-])cc2c1=O)c1cccnc1 [Compound 12]
inhibition at 80 µM (STAT1 SH2 domain): 3 ± 3%
inhibition at 80 µM (STAT3 SH2 domain): 14 ± 2%
STAT5b inhibition (STAT5b SH2 domain): no inhibition at 80 µM
inhibition at 80 µM (Lck SH2): 22 ± 6%

SMILES: COc1ccc2occ(/C=N/NC(=O)c3cccnc3)c(=O)c2c1 [Compound 11]
inhibition at 80 µM (STAT1 SH2 domain): 19 ± 2%
IC50 (STAT3 SH2 domain): 65 ± 1 µM
inhibition at 80 µM (STAT5b SH2 domain): 30 ± 7%
inhibition at 80 µM (Lck SH2): 23 ± 2%

SMILES: CCC(C)(C)c1ccc2occ(C=O)c(=O)c2c1 [Compound 9a]
IC50 (STAT1 SH2 domain): 10.7 ± 1.1 µM
IC50 (STAT3 SH2 domain): 5.3 ± 0.4 µM
IC50 (STAT5b SH2 domain): 34.8 ± 4.2 µM

SMILES: O=C(N/N=C/c1coc2ccc(Br)cc2c1=O)c1cccnc1 [Compound 4]
inhibition at 80 µM (STAT1 SH2 domain): 36 ± 6%
IC50 (STAT3 SH2 domain): 25 ± 1 µM
inhibition at 80 µM (STAT5b SH2 domain): 33 ± 7%
inhibition at 80 µM (Lck SH2): 13 ± 2%

SMILES: O=C(N/N=C/c1coc2ccc(-c3ccccc3)cc2c1=O)c1cccnc1 [Compound 10]
STAT1 inhibition (STAT1 SH2 domain): 36 ± 2% inhibition at 80 µM
STAT3 inhibition (STAT3 SH2 domain): 35 ± 5% inhibition at 80 µM
STAT5b inhibition (STAT5b SH2 domain): no inhibition at 80 µM
Lck inhibition (Lck SH2): no inhibition

SMILES: CC(C)(C)c1ccc2occ(C=O)c(=O)c2c1 [Compound 8a]
IC50 (STAT1 SH2 domain): 15 ± 1.4 µM
IC50 (STAT3 SH2 domain): 8.9 ± 0.8 µM
IC50 (STAT5b SH2 domain): 27.7 ± 1.5 µM

SMILES: O=C(N/N=C/c1coc2ccc(Cl)cc2c1=O)c1cccnc1 [Compound 3]
IC50 (STAT1 SH2 domain): 32 ± 11 µM
IC50 (STAT3 SH2 domain): 40 ± 3 µM
inhibition at 80 µM (STAT5b SH2 domain): 31 ± 4%
inhibition at 80 µM (Lck SH2): 6 ± 6%

SMILES: Cc1ccc2occ(/C=N/NC(=O)c3cccnc3)c(=O)c2c1 [Compound 5]
inhibition at 80 µM (STAT1 SH2 domain): 12 ± 3%
inhibition at 80 µM (STAT3 SH2 domain): 40 ± 2%
IC50 (STAT5b SH2 domain): 32 ± 24 µM
Lck inhibition (Lck SH2): no inhibition

SMILES: CC(C)c1ccc2occ(/C=N/NC(=O)c3cccnc3)c(=O)c2c1 [Compound 7]
IC50 (STAT1 SH2 domain): 39 ± 2 µM
IC50 (STAT3 SH2 domain): 22 ± 1 µM
IC50 (STAT5b SH2 domain): 52 ± 12 µM
Lck inhibition (Lck SH2): no inhibition

Next, values leading:

IC50 (STAT1 SH2 domain): 49 ± 2 µM
IC50 (STAT3 SH2 domain): 14 ± 1 µM
SMILES: CC(C)(C)c1ccc2occ(/C=N/NC(=O)c3ccco3)c(=O)c2c1 [Compound 17]

STAT1 inhibition (STAT1 SH2 domain): 12 ± 4% inhibition at 80 µM
STAT3 inhibition (STAT3 SH2 domain): 20 ± 2% at 80 µM
SMILES: CC(C)(C)c1ccc2occ(/C=N/NC(=O)c3ccc(Cl)cc3)c(=O)c2c1 [Compound 21]

STAT1 inhibition (STAT1 SH2 domain): 9 ± 4% inhibition at 80 µM
IC50 (STAT3 SH2 domain): 50 ± 7 µM
SMILES: CC(C)(C)c1ccc2occ(/C=N/NC(=O)c3ccc[nH]3)c(=O)c2c1 [Compound 19]

inhibition at 80 µM (STAT1 SH2 domain): 34 ± 4%
IC50 (STAT3 SH2 domain): 26 ± 5 µM
SMILES: COc1ccc(C(=O)N/N=C/c2coc3ccc(C(C)(C)C)cc3c2=O)cc1 [Compound 15]

inhibition at 80 µM (STAT1 SH2 domain): 15 ± 2%
inhibition at 80 µM (STAT3 SH2 domain): 42 ± 2%
SMILES: COc1cccc(C(=O)N/N=C/c2coc3ccc(C(C)(C)C)cc3c2=O)c1 [Compound 16]

IC50 (STAT1 SH2 domain): 35 ± 4 µM
IC50 (STAT3 SH2 domain): 14 ± 2 µM
SMILES: CC(C)(C)c1ccc2occ(/C=N/NC(=O)c3ccccc3)c(=O)c2c1 [Compound 13]

inhibition at 80 µM (STAT3 SH2 domain): 9 ± 3%
SMILES: CC(C)(C)c1ccc2occ(/C=N/NCc3ccccc3)c(=O)c2c1 [Compound 22]

inhibition at 80 µM (STAT1 SH2 domain): 32 ± 0.1%
IC50 (STAT3 SH2 domain): 39 ± 4 µM
SMILES: CC(C)(C)c1ccc2occ(/C=N/NC(=O)c3cccs3)c(=O)c2c1 [Compound 18]

inhibition at 80 µM (STAT3 SH2 domain): 4 ± 3%
SMILES: CC(C)(C)c1ccc2occ(/C=N/NS(=O)(=O)c3ccccc3)c(=O)c2c1 [Compound 23]

inhibition at 80 µM (STAT1 SH2 domain): 10 ± 5%
inhibition at 80 µM (STAT3 SH2 domain): 31 ± 8%
SMILES: CC(C)(C)c1ccc2occ(/C=N/NC(=O)c3ccc(F)cc3)c(=O)c2c1 [Compound 20]

IC50 (STAT1 SH2 domain): 77 ± 16 µM
IC50 (STAT3 SH2 domain): 19 ± 1 µM
SMILES: CC(C)(C)c1ccc2occ(/C=N/NC(=O)c3ccc(O)cc3)c(=O)c2c1 [Compound 14]
